Results published in ChEMBL document CHEMBL1201862, “PubChem BioAssay data set” (2004).
Calls of active or inactive are those of the source.

How the values were obtained:
[1] = viability loss in human Jurkat cells – cell-based, luminescence, cytotoxicity control for P. falciparum gametocyte viability project, dose response (AID 1117277); format: functional;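 note: potency reflects loss of cellular ATP meaning fewer viable cells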
[2] = viability inhibitors of stage V gametocytes – luminescence, dose response (AID 1117278); format: functional, cell-based;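 note: gametocytes exposed to compound for 24 hours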
[3] = molecular target: Voltage-gated inwardly rectifying potassium channel KCNH2 (Homo sapiens, UniProt Q12809); test: concentration-dependent hERG rescue from blockers – cell-based, thallium flux, dose response (AID 2121); format: ADME
Chain of Voltage-gated inwardly rectifying potassium channel KCNH2 (Q12809 whole entry): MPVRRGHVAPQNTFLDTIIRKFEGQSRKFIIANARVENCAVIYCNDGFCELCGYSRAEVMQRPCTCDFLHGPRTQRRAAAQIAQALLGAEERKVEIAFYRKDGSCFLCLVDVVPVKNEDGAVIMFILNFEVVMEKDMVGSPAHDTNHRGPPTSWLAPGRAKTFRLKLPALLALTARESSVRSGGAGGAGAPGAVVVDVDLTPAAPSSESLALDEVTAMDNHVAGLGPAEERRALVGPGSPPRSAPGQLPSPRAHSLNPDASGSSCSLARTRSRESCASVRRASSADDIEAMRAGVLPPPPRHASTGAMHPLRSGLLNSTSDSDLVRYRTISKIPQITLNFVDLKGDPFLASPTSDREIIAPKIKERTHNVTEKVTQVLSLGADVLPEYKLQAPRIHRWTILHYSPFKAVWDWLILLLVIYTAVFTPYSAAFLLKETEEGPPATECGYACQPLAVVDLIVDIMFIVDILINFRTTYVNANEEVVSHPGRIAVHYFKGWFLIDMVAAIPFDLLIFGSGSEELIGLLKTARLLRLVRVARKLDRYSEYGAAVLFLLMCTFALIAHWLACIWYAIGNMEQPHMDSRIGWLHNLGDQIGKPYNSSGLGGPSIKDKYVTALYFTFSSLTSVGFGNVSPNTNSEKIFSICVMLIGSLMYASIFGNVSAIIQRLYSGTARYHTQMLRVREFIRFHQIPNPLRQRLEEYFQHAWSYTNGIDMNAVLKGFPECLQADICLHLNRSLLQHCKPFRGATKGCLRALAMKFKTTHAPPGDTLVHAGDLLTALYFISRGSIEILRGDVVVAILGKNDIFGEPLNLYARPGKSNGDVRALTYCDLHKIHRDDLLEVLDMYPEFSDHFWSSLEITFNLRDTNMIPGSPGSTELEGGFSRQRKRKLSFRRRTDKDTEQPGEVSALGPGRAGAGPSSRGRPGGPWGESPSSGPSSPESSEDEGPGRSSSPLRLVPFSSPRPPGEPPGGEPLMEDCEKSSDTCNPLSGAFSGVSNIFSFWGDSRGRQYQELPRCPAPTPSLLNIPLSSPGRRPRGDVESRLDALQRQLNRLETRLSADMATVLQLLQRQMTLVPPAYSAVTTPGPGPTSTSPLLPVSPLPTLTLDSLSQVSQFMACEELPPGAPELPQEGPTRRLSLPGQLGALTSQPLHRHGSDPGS

[4] = alpha-synuclein stem-loop translation blockers – luminescence, H4 neuroglioblastoma cells, dose confirmation, confirmation (AID 2454); format: functional, cell-based;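 note: H4 neuroglioblastoma cells carrying an alpha-synuclein 5'UTR luciferase reporter; potency for inhibition of the luciferase signal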
[5] = alpha-synuclein stem-loop luciferase translation blockers – H4 neuroglioma cells, luminescence, confirmation (AID 1988); format: functional, cell-based
[6] = Luminescence Cell-Based Dose Response HTS to Identify Inhibitors of 5'UTR Stem-Loop Driven Prion Protein mRNA Translation in H4 Neuroglioblastoma Cells. [Related pubchem assays: 1827 (Project Summary), 1813 (Primary HTS)]; format: functional
[7] = luciferase reporter signal suppression in cells – H4 neuroglioma cells, luminescence, dose response (AID 1990); format: functional, cell-based
[8] = molecular target: Glucose-6-phosphate 1-dehydrogenase (Homo sapiens, UniProt P11413); test: inhibition of Homo sapiens G6PD, dose series – biochemical, fluorescence, selectivity assay for P. falciparum G6PD inhibitor project, dose response (AID 504792); format: functional
Chain of Glucose-6-phosphate 1-dehydrogenase (P11413 whole entry, the tested form may be a part): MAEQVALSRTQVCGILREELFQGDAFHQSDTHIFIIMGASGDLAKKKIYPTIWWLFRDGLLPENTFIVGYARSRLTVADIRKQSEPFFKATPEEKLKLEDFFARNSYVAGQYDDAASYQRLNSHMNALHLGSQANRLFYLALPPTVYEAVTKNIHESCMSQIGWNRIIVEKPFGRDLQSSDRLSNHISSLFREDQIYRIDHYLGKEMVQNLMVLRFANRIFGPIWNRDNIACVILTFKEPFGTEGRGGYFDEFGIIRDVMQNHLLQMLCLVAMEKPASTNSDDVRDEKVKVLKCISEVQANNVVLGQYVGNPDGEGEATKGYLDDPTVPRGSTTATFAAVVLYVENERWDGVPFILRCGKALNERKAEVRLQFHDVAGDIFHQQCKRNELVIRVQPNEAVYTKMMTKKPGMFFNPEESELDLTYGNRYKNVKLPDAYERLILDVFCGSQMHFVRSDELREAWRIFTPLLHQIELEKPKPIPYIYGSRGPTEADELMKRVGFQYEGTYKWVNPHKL

[9] = molecular target: T1, RNA-binding protein pos-1 (Caenorhabditis elegans, UniProt G5EF15); test: disruptors of C. elegans POS-1 RNA interaction – biochemical, fluorescence polarization, dose response (AID 1964);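 note: purified POS-1 fused to maltose binding protein made in E. coli; potency of compounds blocking POS-1 binding to fluorescent RNA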
T1 sequence (G5EF15 whole entry): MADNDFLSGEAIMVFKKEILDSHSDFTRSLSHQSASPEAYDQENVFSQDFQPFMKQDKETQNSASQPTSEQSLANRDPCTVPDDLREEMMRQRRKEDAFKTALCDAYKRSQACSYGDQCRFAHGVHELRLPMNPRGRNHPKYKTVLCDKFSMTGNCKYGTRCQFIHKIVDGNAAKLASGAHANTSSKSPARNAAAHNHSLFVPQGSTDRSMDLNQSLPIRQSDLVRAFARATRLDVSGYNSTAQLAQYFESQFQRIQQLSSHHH

[10] = molecular target: T2, Zinc finger protein mex-5 (Caenorhabditis elegans, UniProt Q9XUB2); test: potency of MEX-5 RNA-binding blockers – biochemical, C. elegans, fluorescence polarization, dose response (AID 1960)
T2 sequence (Q9XUB2 whole entry): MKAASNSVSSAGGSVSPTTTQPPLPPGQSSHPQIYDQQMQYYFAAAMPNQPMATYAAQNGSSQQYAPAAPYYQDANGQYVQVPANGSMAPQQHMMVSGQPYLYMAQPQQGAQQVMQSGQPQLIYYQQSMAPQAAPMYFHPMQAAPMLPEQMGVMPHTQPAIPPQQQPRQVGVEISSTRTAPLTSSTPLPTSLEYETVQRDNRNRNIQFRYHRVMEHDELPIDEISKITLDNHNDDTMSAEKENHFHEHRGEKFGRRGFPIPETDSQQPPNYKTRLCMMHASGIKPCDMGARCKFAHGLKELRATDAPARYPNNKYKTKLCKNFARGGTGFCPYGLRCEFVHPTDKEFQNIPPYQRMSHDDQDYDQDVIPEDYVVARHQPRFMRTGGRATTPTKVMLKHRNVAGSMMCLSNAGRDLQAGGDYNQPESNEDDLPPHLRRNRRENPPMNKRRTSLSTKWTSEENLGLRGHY

[11] = luciferase reporter signal reduction – luminescence, H4-C neuroglioblastoma cells, dose response (AID 2458); format: functional, cell-based;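 note: H4 neuroglioblastoma cells stably carrying a luciferase reporter gene fusion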
[12] = molecular target: Cytochrome P450 2C9 (Homo sapiens, UniProt P11712); details: Potency
Chain of Cytochrome P450 2C9 (P11712 whole entry): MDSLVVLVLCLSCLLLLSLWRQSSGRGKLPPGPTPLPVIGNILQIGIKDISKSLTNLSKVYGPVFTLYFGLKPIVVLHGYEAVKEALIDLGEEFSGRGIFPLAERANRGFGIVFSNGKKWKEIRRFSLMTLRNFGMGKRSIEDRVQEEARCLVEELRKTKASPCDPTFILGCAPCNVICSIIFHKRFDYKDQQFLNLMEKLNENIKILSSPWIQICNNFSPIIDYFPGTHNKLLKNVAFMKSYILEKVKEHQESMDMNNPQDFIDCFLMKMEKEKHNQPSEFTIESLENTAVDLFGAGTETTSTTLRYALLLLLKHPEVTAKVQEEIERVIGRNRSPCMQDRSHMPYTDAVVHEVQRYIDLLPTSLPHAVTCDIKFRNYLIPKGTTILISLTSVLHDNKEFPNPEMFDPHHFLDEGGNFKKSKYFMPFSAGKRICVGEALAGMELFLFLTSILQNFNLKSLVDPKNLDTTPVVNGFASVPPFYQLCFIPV

[13] = molecular target: Cytochrome P450 2C19 (Homo sapiens, UniProt P33261); test: qHTS Assay for Inhibitors and Substrates of Cytochrome P450 2C19. [Related pubchem assays: 410 ]; format: ADME; details: read-out: Potency
Chain of Cytochrome P450 2C19 (P33261 whole entry): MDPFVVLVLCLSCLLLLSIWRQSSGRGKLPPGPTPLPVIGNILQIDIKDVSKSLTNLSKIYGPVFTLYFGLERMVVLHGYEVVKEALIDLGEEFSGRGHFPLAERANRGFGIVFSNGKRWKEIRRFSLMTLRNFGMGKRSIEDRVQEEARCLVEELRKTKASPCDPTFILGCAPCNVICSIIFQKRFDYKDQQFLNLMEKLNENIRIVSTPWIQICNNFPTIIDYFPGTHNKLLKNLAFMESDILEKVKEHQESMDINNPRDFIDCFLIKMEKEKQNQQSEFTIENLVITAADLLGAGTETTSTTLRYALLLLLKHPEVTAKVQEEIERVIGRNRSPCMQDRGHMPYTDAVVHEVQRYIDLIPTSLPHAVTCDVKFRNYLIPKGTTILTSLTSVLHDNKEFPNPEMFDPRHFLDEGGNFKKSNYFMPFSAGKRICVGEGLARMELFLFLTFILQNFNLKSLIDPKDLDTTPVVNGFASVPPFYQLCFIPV

[14] = system: Vero; test: cells; format: functional, cell-based; details: Chlorocebus sabaeus
[15] = A Cell Based Secondary Assay To Explore Cytotoxicity of Compounds that Sensitize Mycobacterium Tuberculosis to Beta-Lactam Antibiotics.; format: functional
[16] = system: Vero; test: inhibition of WNV-induced cytopathic effect – cell-based, CPE readout (AID 1621); format: functional; details: Chlorocebus sabaeus
[17] = Luminescence Cell-Based Dose Confirmation to Identify Activators of 5'UTR Stem-Loop Driven Alpha-Synuclein mRNA Translation in H4 Neuroglioblastoma Cells. [Related pubchem assays: 1829 (Project Summary), 1814 (Primary HTS)]; format: functional
[18] = Luminescence Cell-Based Dose Response to Identify Activators of 5'UTR Stem-Loop Driven Prion Protein mRNA Translation in H4-C Neuroglioblastoma Cells. [Related pubchem assays: 1829 (Project Summary), 1814 (Primary HTS)]; format: functional
[19] = system: H4; test: Luminescence Cell-Based Dose Response HTS to Identify Activators of 5'UTR Stem-Loop Driven Prion Protein mRNA Translation in H4 Neuroglioblastoma Cells. [Related pubchem assays: 1829 (Project Summary), 1814 (Primary HTS)]; format: functional; details: Homo sapiens
[20] = Luminescence Cell-Based Dose Confirmation HTS to Identify Activators of 5'UTR Stem-Loop Driven Alpha-Synuclein mRNA Translation in H4 Neuroglioblastoma Cells. [Related pubchem assays: 1829 (Project Summary), 1814 (Primary HTS)]; format: functional
[21] = Luminescence Cell-Based Dose Response to Identify Activators of Luciferase Translation or Activity in H4-C Neuroglioblastoma Cells. [Related pubchem assays: 1829 (Project Summary), 1814 (Primary HTS)]; format: functional
[22] = molecular target: Diphosphomevalonate decarboxylase (Streptococcus pneumoniae serotype 2 (strain D39 / NCTC 7466), UniProt Q9FD53); test: diphosphomevalonate decarboxylase inhibitor confirmation – biochemical, cuvette format, coupled NADH fluorescence (AID 1028); format: functional
Chain of Diphosphomevalonate decarboxylase (Q9FD53 whole entry): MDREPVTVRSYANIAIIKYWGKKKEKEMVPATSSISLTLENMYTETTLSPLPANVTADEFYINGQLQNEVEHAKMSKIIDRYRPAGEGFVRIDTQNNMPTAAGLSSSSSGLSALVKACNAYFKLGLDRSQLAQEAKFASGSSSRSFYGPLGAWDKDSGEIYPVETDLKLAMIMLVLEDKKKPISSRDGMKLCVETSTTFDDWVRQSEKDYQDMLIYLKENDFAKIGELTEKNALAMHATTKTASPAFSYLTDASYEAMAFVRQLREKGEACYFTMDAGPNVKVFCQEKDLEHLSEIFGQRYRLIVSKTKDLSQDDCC

[23] = system: Vero; test: Vero cell viability after compound exposure – synthesized analogs, set II, cytotoxicity control for West Nile virus antiviral project, SAR follow-up (AID 2402); format: functional; details: Chlorocebus sabaeus
[24] = molecular target: T3, Aminopeptidase N (Plasmodium falciparum FcB1/Columbia, UniProt O96935); test: malaria alanyl aminopeptidase activity blockers – biochemical, fluorogenic H-Leu-NHMec substrate, 1536-well (AID 1445); set-up: species or system Plasmodium falciparum 3D7, 3D7
T3 sequence (O96935 whole entry): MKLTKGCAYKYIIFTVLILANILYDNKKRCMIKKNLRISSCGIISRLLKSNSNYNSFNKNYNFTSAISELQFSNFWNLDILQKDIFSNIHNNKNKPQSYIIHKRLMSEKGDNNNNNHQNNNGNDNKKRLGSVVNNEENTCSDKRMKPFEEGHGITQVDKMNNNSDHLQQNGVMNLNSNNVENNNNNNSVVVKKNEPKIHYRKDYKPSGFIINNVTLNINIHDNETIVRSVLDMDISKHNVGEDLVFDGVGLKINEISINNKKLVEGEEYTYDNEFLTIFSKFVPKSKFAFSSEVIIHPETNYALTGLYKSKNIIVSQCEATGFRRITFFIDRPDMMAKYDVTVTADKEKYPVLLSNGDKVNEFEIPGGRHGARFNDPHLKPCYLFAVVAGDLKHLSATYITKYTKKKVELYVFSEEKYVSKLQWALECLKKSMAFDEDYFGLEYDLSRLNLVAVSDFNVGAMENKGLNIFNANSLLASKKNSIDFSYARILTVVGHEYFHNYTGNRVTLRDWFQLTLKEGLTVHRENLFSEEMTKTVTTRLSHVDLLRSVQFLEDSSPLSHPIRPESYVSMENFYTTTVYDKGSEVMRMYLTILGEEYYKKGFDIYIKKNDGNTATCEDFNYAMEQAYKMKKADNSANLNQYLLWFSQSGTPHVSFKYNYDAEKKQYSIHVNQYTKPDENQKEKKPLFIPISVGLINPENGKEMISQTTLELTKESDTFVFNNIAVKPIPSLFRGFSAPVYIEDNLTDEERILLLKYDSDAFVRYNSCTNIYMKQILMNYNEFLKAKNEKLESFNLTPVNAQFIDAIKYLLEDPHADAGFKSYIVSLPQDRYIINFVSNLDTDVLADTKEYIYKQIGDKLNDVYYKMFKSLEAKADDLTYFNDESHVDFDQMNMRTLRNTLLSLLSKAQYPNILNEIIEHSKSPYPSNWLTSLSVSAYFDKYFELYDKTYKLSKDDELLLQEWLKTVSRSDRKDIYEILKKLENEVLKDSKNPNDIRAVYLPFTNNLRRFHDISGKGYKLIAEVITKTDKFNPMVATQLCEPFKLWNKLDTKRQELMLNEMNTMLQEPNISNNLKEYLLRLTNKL

[25] = molecular target: Procathepsin L (Homo sapiens, UniProt P07711); test: CTSL1 protease inhibition – biochemical, QFRET, 1536-well, counter-screen for M1/M17 aminopeptidase inhibitor project, dose response (AID 2214)
Chain of Procathepsin L (P07711 whole entry): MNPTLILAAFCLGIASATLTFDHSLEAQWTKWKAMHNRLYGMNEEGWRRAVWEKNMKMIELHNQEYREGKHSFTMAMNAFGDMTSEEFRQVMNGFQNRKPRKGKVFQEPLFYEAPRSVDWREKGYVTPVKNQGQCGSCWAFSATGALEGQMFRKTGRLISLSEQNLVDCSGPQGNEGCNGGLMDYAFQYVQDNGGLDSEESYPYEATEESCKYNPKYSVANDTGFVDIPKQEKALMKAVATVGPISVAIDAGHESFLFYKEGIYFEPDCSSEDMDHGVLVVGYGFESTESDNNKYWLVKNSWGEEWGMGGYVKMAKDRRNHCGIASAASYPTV

[26] = molecular target: Aspartyl aminopeptidase (Plasmodium falciparum 3D7, UniProt Q8I2J3); test: Counterscreen for inhibitors of M1 and M17 aminopeptidases: QFRET-based biochemical high throughput dose response assay for inhibitors of the Plasmodium falciparum M18 Aspartyl Aminopeptidase (PFM18AAP). [Related PubChem assays: 1619 (Screening assay (M17LAP inhibitors).), 1445 (Screening assay (M1AAP inhibitors).)]
Chain of Aspartyl aminopeptidase (Q8I2J3 whole entry): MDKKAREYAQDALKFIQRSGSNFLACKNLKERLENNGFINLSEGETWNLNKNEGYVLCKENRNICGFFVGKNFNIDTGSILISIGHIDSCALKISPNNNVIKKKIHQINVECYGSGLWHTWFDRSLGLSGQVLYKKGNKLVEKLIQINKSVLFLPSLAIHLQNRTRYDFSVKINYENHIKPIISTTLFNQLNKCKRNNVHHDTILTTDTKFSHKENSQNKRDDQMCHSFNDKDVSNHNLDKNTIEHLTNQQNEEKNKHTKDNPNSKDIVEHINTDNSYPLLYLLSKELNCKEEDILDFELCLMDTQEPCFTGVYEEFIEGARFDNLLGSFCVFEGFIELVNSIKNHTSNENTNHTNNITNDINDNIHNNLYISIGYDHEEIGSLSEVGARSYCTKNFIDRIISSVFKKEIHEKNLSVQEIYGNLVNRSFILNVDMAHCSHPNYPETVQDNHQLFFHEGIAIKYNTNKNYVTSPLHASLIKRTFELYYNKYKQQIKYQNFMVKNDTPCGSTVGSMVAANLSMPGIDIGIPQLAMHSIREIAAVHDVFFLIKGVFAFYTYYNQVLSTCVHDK

[27] = molecular target: T4, Calpain-2 catalytic subunit (Sus scrofa, UniProt P43367); test: m-calpain protease blockers, concentration series – biochemical, fluorogenic peptide substrate, dose response (AID 1420); format: functional
T4 sequence (P43367 whole entry): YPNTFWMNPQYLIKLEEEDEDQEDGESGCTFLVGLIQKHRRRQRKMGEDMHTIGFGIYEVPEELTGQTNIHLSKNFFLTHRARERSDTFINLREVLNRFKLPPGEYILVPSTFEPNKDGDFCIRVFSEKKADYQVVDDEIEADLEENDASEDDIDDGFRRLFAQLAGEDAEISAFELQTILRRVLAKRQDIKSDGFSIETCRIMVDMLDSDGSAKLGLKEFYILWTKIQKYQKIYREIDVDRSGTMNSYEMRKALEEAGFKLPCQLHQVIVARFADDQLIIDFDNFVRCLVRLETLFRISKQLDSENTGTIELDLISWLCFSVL

[28] = molecular target: T5, SUMO-activating enzyme (Homo sapiens, UniProt Q9UBT2); test: blockers of UBC9-mediated SUMO conjugation – biochemical, AlphaScreen, SUMOylation inhibitor project, confirmation (AID 2018); format: functional
T5 sequence (Q9UBE0 whole entry): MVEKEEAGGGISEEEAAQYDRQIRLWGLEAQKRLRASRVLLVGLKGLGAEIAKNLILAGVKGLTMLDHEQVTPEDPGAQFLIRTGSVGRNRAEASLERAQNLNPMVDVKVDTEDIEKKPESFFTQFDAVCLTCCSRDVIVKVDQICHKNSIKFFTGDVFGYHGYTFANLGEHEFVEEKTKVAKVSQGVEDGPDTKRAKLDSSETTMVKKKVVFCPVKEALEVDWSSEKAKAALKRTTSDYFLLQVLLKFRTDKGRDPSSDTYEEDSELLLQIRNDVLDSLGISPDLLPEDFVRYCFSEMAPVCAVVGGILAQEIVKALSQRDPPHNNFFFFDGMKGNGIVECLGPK
T5 sequence (Q9UBT2 whole entry): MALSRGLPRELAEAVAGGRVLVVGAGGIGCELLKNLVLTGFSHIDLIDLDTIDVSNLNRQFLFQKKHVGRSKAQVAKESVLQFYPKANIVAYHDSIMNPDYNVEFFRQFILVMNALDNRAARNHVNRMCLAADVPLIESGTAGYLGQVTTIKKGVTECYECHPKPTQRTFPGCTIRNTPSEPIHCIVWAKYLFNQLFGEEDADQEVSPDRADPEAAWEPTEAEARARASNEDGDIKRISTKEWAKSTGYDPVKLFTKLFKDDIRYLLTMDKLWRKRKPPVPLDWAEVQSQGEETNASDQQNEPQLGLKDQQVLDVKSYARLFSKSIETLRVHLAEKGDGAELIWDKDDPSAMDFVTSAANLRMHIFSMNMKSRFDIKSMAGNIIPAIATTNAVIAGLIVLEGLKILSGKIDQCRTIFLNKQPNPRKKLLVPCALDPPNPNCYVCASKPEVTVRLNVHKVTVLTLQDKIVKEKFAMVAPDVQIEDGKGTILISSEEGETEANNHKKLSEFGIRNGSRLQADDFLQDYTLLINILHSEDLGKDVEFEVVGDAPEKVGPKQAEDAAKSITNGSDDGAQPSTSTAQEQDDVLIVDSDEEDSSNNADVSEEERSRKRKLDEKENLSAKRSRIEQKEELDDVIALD

[29] = molecular target: T6, Caspase-6 (Homo sapiens, UniProt P55212); test: inhibition of CASP6 peptide cleavage – biochemical, VEID-R110 fluorescence, cherry-pick, dose response (AID 720632)
T6 sequence (P55212 whole entry): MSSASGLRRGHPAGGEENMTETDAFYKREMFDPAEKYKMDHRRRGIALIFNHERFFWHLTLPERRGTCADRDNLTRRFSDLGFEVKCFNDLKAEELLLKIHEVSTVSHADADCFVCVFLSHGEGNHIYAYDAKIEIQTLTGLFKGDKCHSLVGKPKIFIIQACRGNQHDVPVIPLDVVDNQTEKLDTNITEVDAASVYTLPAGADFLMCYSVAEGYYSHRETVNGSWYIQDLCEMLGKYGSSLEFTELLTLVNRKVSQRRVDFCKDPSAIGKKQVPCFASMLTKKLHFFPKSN

[30] = molecular target: Bifunctional protein GlmU (Mycobacterium tuberculosis, UniProt P9WMN3); test: Inhibitors of Mycobacterial Glucosamine-1-phosphate acetyl transferase (GlmU). Secondary screen.; set-up: species or system Mycobacterium tuberculosis H37Rv
[31] = molecular target: T5, SUMO-activating enzyme; test: blockers of SAE1/SAE2–UBC9 SUMO transfer – biochemical, HTRF, uHTS, primary screen (AID 2006); format: protein-complex assay
[32] = molecular target: Induced myeloid leukemia cell differentiation protein Mcl-1 (Homo sapiens, UniProt Q07820); format: functional

Nc1ccc(-c2cnc(-c3ccc(N)cc3)nc2)cc1
IC50 [1]: > 83.3 µM (inactive)
IC50 [2]: > 109 µM (inactive)

CCOC(=O)N1CCN(C(=O)c2ccc(CN(c3ccc(C)c(C)c3)S(C)(=O)=O)cc2)CC1
EC50 [3]: 9.85 µM (active)

Cc1ccc2nc3sc(C(=O)N4CCOCC4)c(N)c3cc2c1
EC50 [4]: 0.927 µM (active)
EC50 [5]: 2.37 µM (active)
EC50 [6]: < 0.1 µM (active)
EC50 [7]: 2.01 µM (active)
IC50 [8]: > 80 µM (inactive)
EC50 [9]: 46.8 µM (active)
EC50 [10]: > 300 µM (inconclusive)
EC50 [11]: > 12 µM (inconclusive)

CC(C)C[C@@H](CC(=O)N[C@@H](CCC(=O)O)CC(=O)O)NC(=O)[C@@H]1CNCC[C@H]1NC(=O)C[C@H](CCCN)NC(=O)C[C@H](CO)NC(=O)[C@@H]1CNCC[C@H]1N
AC50 [12]: 25.1 µM (inconclusive)
AC50 [13]: 31.6 µM (inconclusive)

NC1=C(c2nc(-c3ccc(Cl)cc3)cs2)C(=O)CN1CCCN1CCOCC1
IC50 [14]: 22 µM (active)
CC50 [15]: > 40 µM (active)
IC50 [16]: 24.2 µM (active)

Cc1cc(-c2nnc(S)o2)c(C)n1-c1ccccc1
EC50 [17]: 1.19 µM (active)
EC50 [18]: 2.02 µM (active)
EC50 [19]: 75.3 µM (active)
EC50 [20]: < 0.1 µM (active)
EC50 [21]: > 12 µM (not active)

Cc1ccc(-n2sc3ccccc3c2=O)cc1C(=O)N1CCCCC1
IC50 [22]: 19.7 µM (active)

OC1c2c(F)cccc2N=C2CCCN21 (configuration not stated)
CC50 [23]: > 200 µM (active)

COc1ccc(OC)c(/C=C2\SC(=S)N(C(C(=O)O)c3ccccc3)C2=O)c1 (configuration not stated)
IC50 [24]: 12.1 µM (active)
IC50 [25]: > 59.6 µM (not active)
IC50 [26]: > 73.5 µM (not active)

O=C(O)c1cccc(Cn2c(Cl)c(/C=N/NC(=O)c3cc4ccccc4cc3O)sc2=O)c1
IC50 [27]: > 50 µM (not active)
IC50 [28]: 1.86 µM (active)
AC50 [29]: 18.1 µM (active)
IC50 [30]: 134 µM (active)
IC50 [31]: 24.1 µM (active)
IC50 [32]: 3.74 µM (active)
